Laboratory results reported in PMC10981695, “The thylakoid proton antiporter KEA3 regulates photosynthesis in response to the chloroplast energy status” (Nature Communications, 2024).

Legend:
[1] = target: T1, RCT (regulatory C-terminus of KEA3, KEA3 AA495-776) (Arabidopsis thaliana, UniProt Q9M0Z3); assay: temperature-related intensity change (TRIC), RED-tris-NTA labelled His-tag, one-site fit; assay type: binding
T1 sequence (Q9M0Z3 495-776): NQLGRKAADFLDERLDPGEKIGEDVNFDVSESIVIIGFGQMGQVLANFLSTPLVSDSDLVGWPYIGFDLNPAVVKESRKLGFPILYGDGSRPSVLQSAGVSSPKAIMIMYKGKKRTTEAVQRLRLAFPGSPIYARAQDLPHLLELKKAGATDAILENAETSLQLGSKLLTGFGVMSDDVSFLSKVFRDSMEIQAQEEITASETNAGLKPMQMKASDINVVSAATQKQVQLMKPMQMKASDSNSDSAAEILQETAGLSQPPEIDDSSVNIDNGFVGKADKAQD
Description: temperature-related intensity change (TRIC), RED-tris-NTA labelled His-tag, one-site fit on RCT (regulatory C-terminus of KEA3, KEA3 AA495-776)

[2] = target: T1, RCT (regulatory C-terminus of KEA3, KEA3 AA495-776); assay: differential scanning fluorimetry (nanoDSF, intrinsic fluorescence); assay type: binding; conditions: pH 8.0, PBS; 50 and 500 µM ligand
KEA3 = target: T2, KEA3 (Arabidopsis thaliana, UniProt Q9M0Z3); assay: affinity pull-down with ATP-linked agarose beads, immunoblot; assay type: biochemical; conditions: solubilized thylakoids; ATP immobilised via linker
T2 construct: native full-length KEA3 in detergent-solubilized wild-type thylakoid membranes, detected with specific KEA3 antibody
T2 sequence (Q9M0Z3 73-776): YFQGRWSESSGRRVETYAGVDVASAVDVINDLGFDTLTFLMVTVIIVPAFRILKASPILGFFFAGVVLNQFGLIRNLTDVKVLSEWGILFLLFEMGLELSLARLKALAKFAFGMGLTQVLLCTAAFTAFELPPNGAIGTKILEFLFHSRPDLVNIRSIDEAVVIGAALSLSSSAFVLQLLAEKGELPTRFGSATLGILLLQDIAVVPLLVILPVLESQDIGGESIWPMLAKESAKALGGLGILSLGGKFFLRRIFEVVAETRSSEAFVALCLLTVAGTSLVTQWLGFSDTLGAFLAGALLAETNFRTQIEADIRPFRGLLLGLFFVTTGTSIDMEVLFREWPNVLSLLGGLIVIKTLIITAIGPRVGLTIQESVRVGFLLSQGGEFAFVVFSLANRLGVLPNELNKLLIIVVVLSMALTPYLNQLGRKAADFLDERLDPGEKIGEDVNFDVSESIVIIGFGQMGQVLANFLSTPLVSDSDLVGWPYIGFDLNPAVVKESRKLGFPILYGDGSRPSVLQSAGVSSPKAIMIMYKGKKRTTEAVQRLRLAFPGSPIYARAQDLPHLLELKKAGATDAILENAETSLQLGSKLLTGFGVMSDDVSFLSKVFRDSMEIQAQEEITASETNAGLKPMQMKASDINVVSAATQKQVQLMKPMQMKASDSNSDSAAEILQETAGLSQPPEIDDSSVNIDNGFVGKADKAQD

Compound: NC(=O)c1ccc[n+]([C@@H]2O[C@H](COP(=O)(O)OP(=O)(O)OC[C@H]3O[C@@H](n4cnc5c(N)ncnc54)[C@H](OP(=O)(O)O)[C@@H]3O)[C@@H](O)[C@H]2O)c1 [NADP^+]
- Kd [1]: 8 µM

Compound: NC(=O)C1=CN([C@@H]2O[C@H](COP(=O)(O)OP(=O)(O)OC[C@H]3O[C@@H](n4cnc5c(N)ncnc54)[C@H](OP(=O)(O)O)[C@@H]3O)[C@@H](O)[C@H]2O)C=CC1 [NADPH]
- Kd [1]: 38 µM

Compound: Nc1ncnc2c1ncn2[C@@H]1O[C@H](COP(=O)(O)OP(=O)(O)O)[C@@H](O)[C@H]1O [ADP]
- ΔTM [2]: Addition of either ADP or ATP yielded a concentration-dependent increase in the ΔTM of RCT
- Kd [1]: 51 µM

Compound: Nc1ncnc2c1ncn2[C@@H]1O[C@H](COP(=O)(O)OP(=O)(O)OP(=O)(O)O)[C@@H](O)[C@H]1O [ATP]
- ΔTM [2]: Addition of either ADP or ATP yielded a concentration-dependent increase in the ΔTM of RCT
- Kd [1]: 42 µM
- affinity pull-down with ATP-linked agarose beads, immunoblot (KEA3): KEA3 was detected on three of four different types of ATP-linked agarose beads
